Results on one compound are retold here after patent EP0149818A2, “1,4-Naphthoquinone derivatives, process for their preparation and their use as medicines” (Troponwerke GmbH & Co. KG, priority 1983, dated 1985).

The subject of test [1] is durch Carrageenan ausgelöste ödem der Rattenpfote. Kind of test: Carrageenan-induced rat paw oedema (method of Winter et al., modified: pure λ-carrageenan as 0,25 % suspension in saline). Format: in vivo, Ratte. The conditions noted are these: po, p.o, λ-carrageenan 0,25 % suspension, read-out: DE50 (the source's name). As for the experimental part: Die Verbindungen der allgemeinen Formel I hemmen das durch Carrageenan ausgelöste ödem der Rattenpfote stark. Zum Nachweis diente die Methode von Winter et al., Proc. Soc. Exp. Bil. Med. 111, 544 (1962), mit der Abwandlung, daß zur ödemauslösung reines λ-carrageenan als 0,25 % Suspension in physiologischer Kochsalzlösung verwendet wurde. Beispielhaft wurde in diesem Testmodell für Verb. 1 die DE50 = 0,5 mg/kg p.o ermittelt.

For test [2], the system named is Metabolisierung der Arachidonsäure über den Cyclooxygenaseweg. Kind of test: Inhibition of arachidonic acid metabolism via the cyclooxygenase pathway (method of Brune et al.). Format: cell-based. The text has this:
Wie die meisten NSAID (non steroidal antiinflammatory drugs) hemmen auch die meisten Verbindungen der allgemeinen Formel I die Metabolisierung der Arachidonsäure über den Cyclooxygenaseweg mehr oder weniger stark (Methode von Brune et al., Naunyn-Schmiedeberg's Arch. Pharmacol. 315, 269 (1981)). Die IC50 für Verb. 1 in diesem Test beträgt 2.6 x 10-^6 Mol/l.

For test [3], the system named is durch das chemotaktisch wirkende FMLP stimulierte Aggregation von PMN-Leukozyten. In words: Inhibition of FMLP-stimulated aggregation of PMN leukocytes (method of Cunningham et al.). The conditions noted are these: Leukocyte. Type of test: cell-based. The text has this:
Darüber hinaus konnte für eine Reihe von Verbindungen der allgemeinen Formel I nachgewiesen werden, daß sie die durch das chemotaktisch wirkende FMLP stimulierte Aggregation von PMN-Leukozyten hemmen und dadurch Anteil an der entzündungshemmenden Wirkung haben (Methode von Cunningham et al., Agents & Actions 11, 583 (1981)). Für Verb. 1 ist die IC50 in diesem Test 3.7 x 10^-5 Mol/l.

Each structure is given as a SMILES string.

As usually defined, the IC50 is the concentration that inhibits the measured activity by half. High values mean lower potency, low ones higher potency. With `O=C1C(O)=C(NCc2ccccc2)C(=O)c2ccccc21` [Verb. 1, 2-Benzylamino-3-hydroxy-naphthochinon-1,4], the ED50 in test [1] came to 0.5 mg/kg. Further, the IC50 in test [2] was found to be 2.6 µM; in test [3], 37 µM.
